The source of these data is ChEMBL document CHEMBL6121051, “Dendritic Antifungal Peptides as Potent Agents against Drug-Resistant Candida albicans and Biofilm” (J Med Chem, 2025).

Molecules are shown by their SMILES. ≈ marks a conversion by molar mass, not a printed value. Calls of active or inactive are those of the source. The rule behind the calls is not given here. Positions of bridges follow the written chain, without caps; N, C: chain ends. Residues, ends and D or L forms follow the SMILES beside them. Groups on a side chain read outwards from the residue. Chains are numbered I, II in the order given. *: point of attachment. Lauroyl = CCCCCCCCCCCC(=O)*; Octanoyl = CCCCCCCC(=O)* Bounds are passed on as bounds.

Usually MIC stands for the least concentration at which growth counts as inhibited.

Data set [1] concerns Candida albicans. Description: Antifungal activity against fluconazole-resistant Candida albicans 56214 infected in ICR mouse assessed as reduction in TNF-alpha expression in skin wound at 1 mg/ml administered topically bid for 3 days starting at 12 hrs post-infection and measured after 7 days by immunofluorescence analysis. In kind it is functional, organism-based. The settings on record: time 7.0 day.

The subject of data set [2] is Candida albicans. Put plainly: Antifungal activity against fluconazole-resistant Candida albicans 56214 infected in ICR mouse assessed as reduction in oxidative stress by measuring decrease in ROS accumulation in skin wounds at 1 mg/ml administered topically bid for 3 days starting at 12 hrs post-infection and measured after 7 days by fluorescence staining based analysis. In kind it is functional, organism-based. The following applies: time 7.0 day.

Data set [3] concerns Candida albicans. Description: Antifungal activity against fluconazole-resistant Candida albicans 56214 infected in ICR mouse assessed as elimination of fungal hyphae on the infected skin at 1 mg/ml administered topically bid for 3 days starting at 12 hrs post-infection and measured after 7 days by PAS staining. In kind it is functional, organism-based. The settings on record: time 7.0 day.

Data set [4] concerns Candida albicans. Put plainly: Antifungal activity against fluconazole-resistant Candida albicans 56214 infected in ICR mouse assessed as wound healing with appearance of new skin tissue at 1 mg/ml administered topically bid for 3 days starting at 12 hrs post-infection and measured for 6 days. It counts as functional, organism-based. The settings on record: time 6.0 day.
Data set [5] relates to Candida albicans. Put plainly: Antifungal activity against fluconazole-resistant Candida albicans 56214 infected in ICR mouse assessed as reduction in IL-6 expression in skin wound at 1 mg/ml administered topically bid for 3 days starting at 12 hrs post-infection and measured after 7 days by immunofluorescence analysis. In kind it is functional, organism-based. The settings on record: time 7.0 day.

Data set [6] has as its system Candida albicans. Put plainly: Antifungal activity against fluconazole-resistant Candida albicans 56214 infected in ICR mouse assessed as reduction in severity of skin infection at 1 mg/ml administered topically bid for 3 days starting at 12 hrs post-infection and measured after 7 days by PAS staining based analysis. The settings on record: time 7.0 day. In kind it is functional, organism-based.

Data set [7] has as its system Candida albicans. Put plainly: Antifungal activity against Candida albicans cgmcc 2.2086 assessed as inhibition of fungal growth incubated for 48 hrs. In kind it is functional.
Data set [8] relates to Candida albicans. Put plainly: Antifungal activity against fluconazole-resistant Candida albicans 56214 assessed as inhibition of fungal growth incubated for 48 hrs. It counts as functional.
The test system of data set [9] is Candida albicans. Description: Antifungal activity against Candida albicans 58288 assessed as inhibition of fungal growth incubated for 48 hrs. In kind it is functional.
Another data set relates to HEK-293T. Put plainly: Cytotoxicity against human HEK293T cells assessed as cell viability at 8 to 128 ug/ml incubated for 4 hrs by MTT assay. It counts as toxicity, cell-based. The settings on record: dose 8-128 µg/ml. A general note: Tetrazolium dyes change colour on reduction, which living cells bring about.
Data set [10] can be described thus: Cytotoxicity against mouse RAW264.7 cells assessed as cell survival rate at 128 ug/ml incubated for 4 hrs by MTT assay. In kind it is toxicity, cell-based. The following applies: dose 128 µg/ml, read-out: Activity.
Data set [11] relates to Candida albicans. Description: Antifungal activity against Candida albicans SP 3903 assessed as inhibition of fungal growth incubated for 48 hrs. It counts as functional.
Data set [12] has as its system Candida albicans. Put plainly: Antifungal activity against Candida albicans SP 3902 assessed as inhibition of fungal growth incubated for 48 hrs. In kind it is functional.
Data set [13] deals with Candida albicans. Description: Antifungal activity against Candida albicans 17546 assessed as inhibition of fungal growth incubated for 48 hrs. It counts as functional.
The test system of data set [14] is Candida albicans. Put plainly: Antifungal activity against Candida albicans 14936 assessed as inhibition of fungal growth incubated for 48 hrs. In kind it is functional.
A short description of data set [15]: Cytotoxicity against human HEK293T cells assessed as cell survival rate at 128 ug/ml incubated for 4 hrs by MTT assay. In kind it is toxicity, cell-based, HEK-293T. The following applies: dose 128 µg/ml, read-out: Activity.
A short description of data set [16]: Toxicity against human RBC assessed as hemolysis rate at 128 ug/ml incubated for 1 hr. It counts as cell-based, Erythrocyte. The settings on record: red blood cells (RBC), dose 128 µg/ml, read-out: Activity.
Data set [17] relates to Candida albicans. Put plainly: Antifungal activity against Candida albicans 2.3989 assessed as inhibition of fungal growth incubated for 48 hrs. In kind it is functional.
The test system of data set [18] is Candida albicans. Put plainly: Antifungal activity against Candida albicans SP 3931 assessed as inhibition of fungal growth incubated for 48 hrs. It counts as functional.

`C[C@@H]1[C@H](O)[C@@H](C)/C=C/C=C/C=C/C=C/C=C/C=C/C=C/[C@H](O[C@@H]2O[C@H](C)[C@@H](O)[C@H](N)[C@@H]2O)C[C@@H]2O[C@](O)(C[C@@H](O)C[C@@H](O)[C@H](O)CC[C@@H](O)C[C@@H](O)CC(=O)O[C@H]1C)C[C@H](O)[C@H]2C(=O)O`: the outcome in the data set on Candida albicans [1], in the data set with Candida albicans [2], in the data set with Candida albicans [3], in the data set on Candida albicans [4], in the data set on Candida albicans [5] and with Candida albicans [6] was Active.

For `CCCCCCCCCCCC(=O)NCC(=O)NCC(=O)NCC(=O)N[C@@H](CCCCNC(=O)[C@@H]1CCCN1C(=O)[C@H](CCCNC(=N)N)NC(=O)[C@@H]1CCCN1C(=O)[C@H](CCCNC(=N)N)NC(=O)[C@@H]1CCCN1C(=O)[C@@H](N)CCCNC(=N)N)C(=O)N[C@@H](CCCCNC(=O)[C@@H]1CCCN1C(=O)[C@H](CCCNC(=N)N)NC(=O)[C@@H]1CCCN1C(=O)[C@H](CCCNC(=N)N)NC(=O)[C@@H]1CCCN1C(=O)[C@@H](N)CCCNC(=N)N)C(=O)N[C@@H](CCCNC(=N)N)C(=O)N1CCC[C@H]1C(=O)N[C@@H](CCCNC(=N)N)C(=O)N1CCC[C@H]1C(=O)N[C@@H](CCCNC(=N)N)C(=O)N1CCC[C@H]1C(N)=O` (I: Lauroyl-GGGKKRPRPRP-NH2 / II: H-RPRPRP / III: H-RPRPRP; amide I:4-II:C, I:5-III:C), the MIC with Candida albicans [7] is 16 µM (≈ 46.5 µg/mL); with Candida albicans [8], 8 µM (≈ 23.3 µg/mL); in the data set on Candida albicans [9], 32 µM (≈ 93 µg/mL); in the data set with Candida albicans [11], 8 µM (≈ 23.3 µg/mL); with Candida albicans [12], 8 µM (≈ 23.3 µg/mL); in the data set with Candida albicans [13] it was 32 µM (≈ 93 µg/mL). Also, the MIC in the data set with Candida albicans [14] was 16 µM (≈ 46.5 µg/mL); in the data set with Candida albicans [17], 64 µM (≈ 186 µg/mL); in the data set on Candida albicans [18] it was 32 µM (≈ 93 µg/mL). In the data set on HEK-293T, the Activity result is reported as “Non-toxic”. Further, the viability at 4 h, 128 ug/ml in data set [10] was found to be 50%; in data set [15] it was 95%. In [16], the hemolysis at 1 h, 128 ug/ml was below 2%.

For `CCCCCCCC(=O)NCC(=O)NCC(=O)NCC(=O)N[C@@H](CCCCNC(=O)[C@@H]1CCCN1C(=O)[C@H](CCCNC(=N)N)NC(=O)[C@@H]1CCCN1C(=O)[C@@H](N)CCCNC(=N)N)C(=O)N[C@@H](CCCCNC(=O)[C@@H]1CCCN1C(=O)[C@H](CCCNC(=N)N)NC(=O)[C@@H]1CCCN1C(=O)[C@@H](N)CCCNC(=N)N)C(=O)N[C@@H](CCCNC(=N)N)C(=O)N1CCC[C@H]1C(=O)N[C@@H](CCCNC(=N)N)C(=O)N1CCC[C@H]1C(N)=O` (Octanoyl-GGGK([Pro-Arg-Pro-Arg])K([Pro-Arg-Pro-Arg])RPRP-NH2), the MIC with Candida albicans [7], in the data set with Candida albicans [8], with Candida albicans [9], in the data set on Candida albicans [11], in the data set with Candida albicans [12] and with Candida albicans [13] was above 128 µM each time. Besides, the MIC with Candida albicans [14], in the data set with Candida albicans [17] and with Candida albicans [18] was above 128 µM in each case. In addition, in the data set with HEK-293T, the Activity result was “Non-toxic”. For the same compound, the viability at 4 h, 128 ug/ml in data set [15] came to 95%. Besides, the hemolysis at 1 h, 128 ug/ml in data set [16] is below 2%.
